Here are results for 3 substances from article PMC3133470, “Activity of Cathelicidin Peptides against Simkania negevensis” (International Journal of Peptides, 2011).

Where no end group is shown, it is not given here.

For assay [1], the system named is Simkania negevensis reference strain Z (ATCC VR-1471). In words: Inhibition of Simkania negevensis infectivity (reduction of inclusions) after pre-incubation of elementary bodies with peptide. It counts as cell-based. As to conditions: purified EBs incubated with peptide 2 h at room temperature in PBS/SPG pH 7.4; tenfold dilutions 100 to 0.01 μg/mL; LLC-MK2 cells, 72 h at 35°C; inclusions by immunofluorescence; untreated control mean 74 IFU/mL; means of three experiments in triplicate. The method, then:
The cathelicidin peptides—PG-1 from pig, Bac7 (1–35) from cattle, SMAP-29 from sheep, LL-37 from human, BMAP-27, and BMAP-28 from cattle—were chemically synthesized, purified, characterized, and provided as lyophilized peptide, as previously reported. The reference strain Z of S. negevensis (American Type Culture Collection VR-1471) was grown in LLC-MK2 cells in 6-large well plates and elementary bodies (EBs) were purified by use of sucrose gradients, resuspended in sucrose-phosphate-glutamic acid buffer (SPG) pH 7.4 (75 g sucrose, 87 mL 0.2 M Na2HPO4, 13 mL 0.2 M NaH2PO4, 0.72 g L-glutamic acid), and frozen in aliquots at −80°C.
Stock solutions of each peptide at 1 g/liter were prepared in phosphate-buffered saline (PBS), pH 7.4, and stored frozen in 20-μL aliquots at −80°C until used. To determine the lowest peptide concentration required to achieve ≥50% reduction of inclusions with respect to untreated control, the various peptides were diluted tenfold from 200 to 0.02 μg/mL, in a volume of 100 μL with PBS in polypropylene tubes. An equal volume of 5 × 10^5 inclusion-forming units (IFU)/mL of purified S. negevensis EBs in SPG medium was then added, so obtaining a final cathelicidin concentration ranging from 100 to 0.01 μg/mL in a mixture of PBS and SPG at a final pH 7.4. EBs untreated with cathelicidins were used as a control. After incubation at room temperature for 2 h, a 200 μL aliquot was added to 800 μL chlamydial growth medium and inoculated onto LLC-MK2 cells grown in 24-well plates in a 5% CO2 atmosphere. After centrifugation at 800 × g for 1 h at 33°C and incubation at 35°C for 72 h, the cultures were fixed and stained for the presence of inclusions by immunofluorescence using an in-house rabbit polyclonal hyperimmune serum raised against S. negevensis. The number of IFU per coverslip was counted in 40 microscopic fields using a ZEISS UV microscope at a magnification of ×200.
All tests were performed in triplicate and in three independent experiments.

In a further assay the test system is Chlamydophila felis. As to conditions: previous study of the authors; cited from earlier work. The method, then: (§1) With regard to the other chlamydial species tested, only Chlamydophila pneumoniae and Chlamydophila felis were sensitive to 10 μg/mL of SMAP-29 and 80 μg/mL of SMAP-29/Bac7, respectively.
The subject of assay [2] is Chlamydia trachomatis strains. The note with it: previous study of the authors; cited from earlier work. The method, then: as §1

Take “PG-1: cathelicidin peptide from pig, chemically synthesized; native protegrin-1 has two intramolecular disulfide bonds (RGGRLCYCRRRFCVCVGR; not fully specified (bridges); ends and bridges not checked; also: native protegrin-1 has two intramolecular disulfides, pairing not given here; UniProt P32194 131-148, looked up)”: the “lowest peptide concentration required to achieve ≥50% reduction of inclusions with respect to untreated control” value in assay [1] amounted to 1 µg/mL.

For “Bac7: cathelicidin peptide Bac7 (1–35) from cattle, chemically synthesized (RRIRPRPPRLPRPRPRPLPFPRPGPRPIPRPLPFP; Bactenecin 7; UniProt P19661 131-165, looked up, fragment)”, the “lowest peptide concentration required to achieve ≥50% reduction of inclusions with respect to untreated control” value in assay [1] was 0.1 µg/mL. In the assay on Chlamydophila felis, the “concentration to which Chlamydophila felis was sensitive” value was 80 µg/mL.

Consider LL-37, for which the “lowest peptide concentration required to achieve ≥50% reduction of inclusions with respect to untreated control” value in assay [1] was above 100 µg/mL. Further, the “concentration with inhibitory effect on Chlamydia trachomatis strains” value in assay [2] was above 80 µg/mL.
